Laboratory results published in patent publication US5391800A, “Method for inhibition of cell motility by sphingosine-1-phosphate, its derivatives and mimetics and method of synthesizing sphingosine-1-phosphate and its derivatives” (The Biomembrane Institute, priority 1993, dated 1995).

Tests used:
mouse 3T3 cell = conditions: literature; cited from earlier work
B16/F10 cells = experiment: Chemotactic motility of B16/F10 cells through MATRI-GEL-coated transwell filter; assay type: cell-based, mouse
Protocol: (§1) The assays for determining chemotactic cell motility and chemoinvasion can be performed using transwell plates with a polycarbonate membrane filter (pore size 8 μm) (Costar Scientific, Cambridge, Mass.). Aliguots, e.g., 50 μl, of an aqueous solution of MATRI-GEL (Collaborative Research, Bedford, Mass.) containing SPN-1-P or other inhibitor (e.g., 20 μg/ml for chemotactic motility assay or 200 μg/ml for chemoinvasion assay), is added to each well and dried overnight. The filter is then fitted onto the lower chamber plate. The lower chamber can contain conditioned medium (CM) (i.e., medium used for splenic stromal cell culture, and containing motility factor secreted by these cells), e.g., 0.6 ml, with or without SPN-1-P or other inhibitor. To the upper chamber is added, e.g., about 100 μl, of cell suspension (5×10^4 cells/ml for invasion assay, 5×10^5 cells/ml for motility assay), which is then incubated in 5% CO2 at 37° C. for 70-72 hours (invasion assay) or 20 hours (motility assay). After incubation, cells remaining in the upper chamber are wiped off with a cotton swab, and cells which had migrated to the lower chamber side of the filter are fixed in methanol for 30 seconds and stained with 0.05% toluidine blue. The filter is removed, the stain is solubilized in 10% acetic acid (e.g., 0.1 ml for invasion assay, 0.5 ml for motility assay), and color intensity (optical density) is quantitated by ELISA reading at 630 nm. Using SPN-1-P, a linear relationship was observed between cell number and toluidine blue optical density (FIG. 7).
(§2) Assays were performed using transwell plates with polycarbonate membrane filters (pore size 8 μm) (Costar Scientific, Cambridge, Mass.). 50 μl aliguots of an aqueous solution of MATRI-GEL (Collaborative Research, Bedford, Mass.) containing 20 μg/ml (for chemotactic motility assay) or 200 μg/ml (for chemoinvasion assay) were added to each well and dried overnight. The filter was fitted onto the lower chamber plate. The lower chamber contained 0.6 ml conditioned medium (CM) (i.e., medium used for splenic stromal cell culture, and containing motility factor secreted by these cells) with or without the suspected inhibitor. To the upper chamber was added 100 μl of cell suspension (5×10^4 cells/ml for invasion assay, 5×10^5 cells/ml for motility assay), which was then incubated in 5% CO2 at 37° C. for 70-72 hours (invasion assay) or 20 hours (motility assay). After incubation, cells remaining in the upper chamber were wiped off with a cotton swab, and cells which had migrated to the lower chamber side of the filter were fixed in methanol for 30 seconds and stained with 0.05% toluidine blue. The filter was removed, the stain was solubilized in 10% acetic acid (0.1 ml for invasion assay, 0.5 ml for motility assay), and color intensity (optical density) was quantitated by ELISA reading at 630 nm. A linear relationship was observed between cell number and toluidine blue optical density (FIG. 7.).
(§3) In experiments with different quantities of MATRI-GEL, cell migration through transwell filter was maximal with 1 μg/well was applied, and when CM was used (FIG. 8). Therefore, chemotactic cell motility, as affected by various SPN derivatives, was assayed under these conditions.
(§4) *Mean ± S.E. of percent relative to control (n = 4). Actual O.D. value
(§5) and 0.147 (HT1080). 6 × 10^4 cells were placed on a transwell
(§6) filter coated with 1.0 μg MATRIGEL in the upper chamber, and cultured
(§7) for 18 hours in the presence of CM and SPN1-P in the lower chamber.

[1] = system: human fibrosarcoma HT1080 cells; experiment: Chemotactic motility of fibrosarcoma HT1080 cells through MATRI-GEL-coated transwell filter; assay type: cell-based
Protocol: as §1, §2, §3, §4, §5, §6, §7

Balb/c 3T3 fibroblasts = experiment: Chemotactic motility of Balb/c 3T3 fibroblasts through MATRI-GEL-coated transwell filter; assay type: cell-based; conditions: Mus musculus, 18 hours, relative to control, mean ± S.E., n = 4
Protocol: as §1, §2, §3, §4, §5, §6, §7

Row | SMILES | Mouse 3T3 cell growth (mouse 3T3 cell) | activity at 0.001 µM (B16/F10 cells; Mus musculus, B16-F10, F10, 0.001 μM, 18 hours, relative to control, mean ± S.E., n = 4) [%] | activity at 0.01 µM (B16/F10 cells; Mus musculus, B16-F10, F10, 0.01 μM, 18 hours, relative to control, mean ± S.E., n = 4) [%] | activity at 0.1 µM (B16/F10 cells; Mus musculus, B16-F10, F10, 0.1 μM, 18 hours, relative to control, mean ± S.E., n = 4) [%] | activity at 1 µM (B16/F10 cells; Mus musculus, B16-F10, F10, 1.0 μM, 18 hours, relative to control, mean ± S.E., n = 4) [%] | Susceptibility of B16/F10 cells (chemotactic motility) (B16/F10 cells; Table V, in words) | activity at 0.001 µM ([1]; Homo sapiens, HT-1080, HT1080, 0.001 μM, 18 hours, relative to control, mean ± S.E., n = 4) [%] | activity at 0.01 µM ([1]; Homo sapiens, HT-1080, HT1080, 0.01 μM, 18 hours, relative to control, mean ± S.E., n = 4) [%] | activity at 0.1 µM ([1]; Homo sapiens, HT-1080, HT1080, 0.1 μM, 18 hours, relative to control, mean ± S.E., n = 4) [%] | activity at 1 µM ([1]; Homo sapiens, HT-1080, HT1080, 1.0 μM, 18 hours, relative to control, mean ± S.E., n = 4) [%] | activity at 5 µM ([1]; Homo sapiens, HT-1080, HT1080, 5.0 μM, 18 hours, relative to control, mean ± S.E., n = 4) [%] | Susceptibility of human fibrosarcoma HT1080 cells (chemotactic motility) ([1]; Table V, in words) | activity at 0.001 µM (Balb/c 3T3 fibroblasts; BALB/c3T3, 0.001 μM) [%] | activity at 0.01 µM (Balb/c 3T3 fibroblasts; BALB/c3T3, 0.01 μM) [%] | activity at 0.1 µM (Balb/c 3T3 fibroblasts; BALB/c3T3, 0.1 μM) [%] | activity at 1 µM (Balb/c 3T3 fibroblasts; BALB/c3T3, 1.0 μM) [%] | activity at 5 µM (Balb/c 3T3 fibroblasts; BALB/c3T3, 5.0 μM) [%]
1 | CCCCCCCCCCCCC/C=C/[C@@H](O)[C@@H](N)CO [SPN, sphingosine] | stimulation of mouse 3T3 cell growth |  |  |  |  |  |  |  |  |  |  |  |  |  |  |  | 
2 | CCCCCCCCCCCCC/C=C/[C@@H](O)[C@@H](N)COP(=O)(O)O [SPN-1-P, sphingosine-1-phosphate] |  | 96 ± 21 | 10 ± 4 | 4 ± 2 | 4 ± 1 | high | 100 ± 21 | 100 ± 30 | 115 ± 35 | 105 ± 14 | 64 ± 4 | low | 119 ± 9 | 125 ± 5 | 101 ± 10 | 40 ± 1 | 11 ± 1
